Tests used:
[1] = test system: male mice; test: Ear oedema test induced by croton oil; assay type: in vivo; conditions: applied to the ear, 6 hours
Method: Ear Oedema Test Induced by Croton Oil
The products have also been tested in the model of the ear oedema of mice using croton oil according to the method described in Tonelli et al. (Endocrinology, 1965, 77, 625-634). An ear oedema is induced in male mice weighing 18 to 22 g, by using croton oil (2% v/v) in a pyridine-water-ether solution 4:1:14.6 (by volume). The animals are sacrificed 6 hours later, the ears are removed and weighed. The difference in weight between the ear treated with croton oil and the contralateral ear (non-treated) allows 100% of the oedema to be determined. The products to be tested are dissolved in the solution of croton oil and applied to the ear.

[2] = test system: Female Wistar rats; test: Granuloma test (cotton pellets), anti-inflammatory activity; assay type: in vivo; conditions: rat, oral route, once a day for four days
Method: (§1) Granuloma Test—Thymolytic Activity
(§2) The anti-inflammatory activity was studied according to the standard granuloma test. The technique used is a modification of the method of Meier and Coll. (Experentia, 1950, 6, 469). Female Wistar rats, weighing 90 to 100 g, receive an implantation of two cotton pellets of 10 mg each under the skin of the thorax. The products are immediately administered by oral route, a the rate of once a day for four days. The animals are then sacrificed. The pellets surrounded by the granuloma tissue formed, are weighed in the fresh state, then after eighteen hours at 60° C. The weight of the granuloma is obtained by deduction of the initial weight of the cotton.

[3] = test system: Female Wistar rats; test: Thymolytic activity (thymus weight in granuloma test); assay type: in vivo; conditions: rat, oral route, once a day for four days
Method: as §1, §2
The thymuses are also removed and weighed in order to determine the thymolytic activity of the products.

[4] = test system: Male Wistar rats; test: Retarded hypersensitivity test (M. Tuberculosis), immunosuppressive activity; assay type: in vivo; conditions: oral route from day 4 to 7, paw oedema 24 hours after antigen; for ED50: Mycobacterium tuberculosis, 4TO7, rat, read-out: Retarded hypersensitivity (M. Tuberculosis, rat) ED 50
Method: 3) Immunosuppressive Activity.
The immunosuppressive activity was studied according to the retarded hypersensitivity test described in the article by Hambleton et al. (Agents and Actions, […], 29, 328). Male Wistar rats weighing 150 to 160 g are sensitized on day 0 with a suspension of Mycobacterium Tuberculosis 4 mg/ml in parrafin oil by a sub-cutaneous injection at the base of the tail (0.1 ml/animal).
The products are administered by oral route from day 4 to 7.
On day 7, one hour after the last administration, the animals receive an injection of the soluble fraction of the antigen triggering the hypersensitivity reaction: 0.4 mg/rat in 0.2 ml by intraplantar route in a rear paw, the other receives the same quantity of solvent.
The oedema is measured 24 hours afterwards using an UGO BASIL plethysmometer from APELEX.
The activity of the products is evaluated by the percentage reduction in the increase of the injected paw relative to that of the control animals.

[5] = test system: collagenase promoter; test: Regulation of transcription in transfected Hela cells: transrepression (Coll (-517/+63) CAT plasmid); assay type: cell-based; conditions: 24 hours, CAT ELISA; for inhibition at 1 µM / inhibition at 0.1 µM / inhibition at 0.01 µM / inhibition at 0.001 µM: Homo sapiens
Method: (§3) The molecules according to the invention have been tested in models of HELA cells transfected with the GRE-tk-CAT plasmid (transactivation), or with the pColl-CAT plasmid (transrepression). (Cf. TEST 1)
(§4) I) Study of the regulation of transcription in transfected Hela cells.
(§5) Hela cells (ATCC ref: CCL-2) are distributed in a 6-well plate, in a nutritive medium with a density of 4×10^5 cells/ml, 24 hours before the transfection, and are incubated at 37° C. The transitory transfections are produced according to the precipitate method with calcium phosphate. In the case of the study of transactivation, the cells are transfected with 1 μg of GRE-tk-CAT plasmid, 1 μg of polyII β-GAL plasmid and KS plasmid (Stratagene), s.q.f. 5 μg. In the case of the study of transrepression, the cells are transfected with 3 μg of Coll (−517/+63) CAT plasmid, 250 ng of pSV-cjun plasmid, 1 μg of polyII β-GAL plasmid and KS plasmid (Stratagene), s.q.f. 5 μg. The precipitate is left in contact with the cells for 16 hours. These are then rinsed and covered with the nutritive medium containing different concentrations of Dexamethasone or the products to be studied (10^−9M, 10^−8M, 10^−7M, 10^−6M). 24 hours after the addition of the products, the cells are lysed in 250 μl of MOPS-NaCl-Triton X-100 buffer. The CAT is dosed in the cellular extracts using the ELISA Kit (Boehringer Mannheim).

[6] = test system: GRE-tk promoter; test: Regulation of transcription in transfected Hela cells: transactivation (GRE-tk-CAT plasmid); assay type: cell-based; conditions: 24 hours, CAT ELISA
Method: as §3, §4, §5

Row | Structure (SMILES) | Oedema using croton oil (mouse) ED 50 [1] | Granuloma ED 50 [2] | Thymolysis ED 50 [3] | ED50 [4] | inhibition at 1 µM ([5]; 10^-6 M) | inhibition at 0.1 µM ([5]; 10^-7 M) | inhibition at 0.01 µM ([5]; 10^-8 M) | inhibition at 0.001 µM ([5]; 10^-9 M) | Activation of GRE-tk (%) ([6]; 10^-6 M) | Activation of GRE-tk (%) ([6]; 10^-7 M) | Activation of GRE-tk (%) ([6]; 10^-8 M) | Activation of GRE-tk (%) ([6]; 10^-9 M) | Inhibition of the Coll promoter (%) ([5]; 10^-6 M) | Inhibition of the Coll promoter (%) ([5]; 10^-7 M) | Inhibition of the Coll promoter (%) ([5]; 10^-8 M) | Inhibition of the Coll promoter (%) ([5]; 10^-9 M) | Retarded hypersensitivity (M. Tuberculosis, rat) ED 50 [4]
1 | C[C@]12C=CC(=O)C=C1CC[C@@H]1[C@@H]2[C@@H](O)C[C@@]2(C)[C@H]1CC[C@]2(O)C(=O)CO [Prednisolone, reference compound] | 4 μg/ear | 2.5 mg/kg/po | 1.6 mg/kg/po | 5 to 20 mg/kg | – | – | – | – | – | – | – | – | – | – | – | – | –
2 | C[C@@H]1C[C@H]2[C@@H]3CCC4=CC(=O)C=C[C@]4(C)[C@@]3(F)[C@@H](O)C[C@]2(C)[C@@]1(O)C(=O)CO [Dexamethasone, reference compound] | 1 μg/ear | 0.1 mg/kg/po | <0.05 mg/kg/po | 0.05 mg/kg | 93.1% | 96.6% | 87.6% | 42.2% | 98.82 +/− 1.18% | 89.48 +/− 2.26% | 53.38 +/− 2.65% | 7.34 +/− 2.57% | – | – | – | – | –
3 | CSCC(=O)[C@H]1[C@H](C)C[C@H]2[C@@H]3CCC4=CC(=O)C=C[C@]4(C)[C@@]3(F)[C@@H](O)C[C@@]21C [Example 1, 9α-fluoro-11β-hydroxy-16α-methyl-21-thiomethyl-pregna-1,4-diene-3,20-dione] | 10 μg/ear | 5 mg/kg/po | 2.5 mg/kg/po | – | – | – | – | – | 37.56 +/− 1.9% | 35.21 +/− 2.24% | 27.74 +/− 1.05% | 3.78 +/− 0.87% | 81.79 +/− 2.98% | 57.61 +/− 2.46% | 37.12 +/− 6.7% | 3.57 +/− 3.09% | 2.3 mg/kg
4 | C[C@@H]1C[C@H]2[C@@H]3CCC4=CC(=O)C=C[C@]4(C)[C@@]3(F)[C@@H](O)C[C@]2(C)[C@H]1C(=O)CC#N [Example 2, 9α-fluoro-11β-hydroxy-16α-methyl-pregna-1,4-diene-3,20-dione-21-carbonitrile] | 2 μg/ear | >7 mg/kg/po | 2.5 mg/kg/po | 1.5 mg/kg | 75.6% | 81.3% | 36.2% | 20.6% | 16.92 +/− 3.55% | 10.45 +/− 4.33% | 1.34 +/− 1.33% | 0% | – | – | – | – | –

Source: patent US6492536B2, “Steroids, their use as medicaments, their preparation process, the intermediates of this process and the compositions containing them” (Aventis Pharma S.A., priority 1996, dated 2002)
